From article PMC6213020, “Identification of a Novel PPAR-γ Agonist through a Scaffold Tuning Approach” (International Journal of Molecular Sciences, 2018)

Experiments:
[1] = target: T1, PPAR-δ (Homo sapiens, UniProt Q03181); experiment: cell-based PPAR transactivation (luciferase) assay, PPAR-δ; settings: compounds 10 µM; relative to maximum activation with GW0742 (10 μM); PPAR-Luc in HEK293t cells; read-out: % max PPAR-δ
T1 construct: host or cells: HEK293t
T1 sequence (Q03181 1-441): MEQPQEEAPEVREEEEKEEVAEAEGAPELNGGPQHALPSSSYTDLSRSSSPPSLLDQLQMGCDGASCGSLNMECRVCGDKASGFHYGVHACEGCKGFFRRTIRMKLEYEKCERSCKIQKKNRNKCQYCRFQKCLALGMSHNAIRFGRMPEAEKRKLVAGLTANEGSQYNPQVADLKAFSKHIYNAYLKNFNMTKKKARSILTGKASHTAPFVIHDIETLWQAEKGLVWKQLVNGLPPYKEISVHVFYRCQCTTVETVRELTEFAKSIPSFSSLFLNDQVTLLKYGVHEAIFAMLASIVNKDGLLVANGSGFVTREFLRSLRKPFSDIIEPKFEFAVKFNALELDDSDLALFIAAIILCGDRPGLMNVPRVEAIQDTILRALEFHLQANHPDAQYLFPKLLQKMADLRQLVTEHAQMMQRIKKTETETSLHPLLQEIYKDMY
Procedure: (§1) The PPAR activities of the synthesized dichloroanilide-linked indole analogs were assessed using a standard cell-based transactivation assay in CV-1 cells. GW7647 [42], pioglitazone, and GW0742 [43] were used as positive controls for PPAR-α, -γ, and -δ, respectively. These three positive controls presented the maximum activation for each PPAR subtype. The activity of the compounds was presented as the activation percentage (%) relative to the maximum values of the positive controls at the indicated concentrations.
(§2) Transient transfection and luciferase assay was carried out. CV-1 cells were seeded in 48-well plates at a density of 1.5 × 10^5 cells/well in Dulbecco’s modified Eagle’s medium (DMEM) with containing 10% fetal bovine serum (FBS). The cells were transiently transfected with plasmid mixtures containing PPAR-α/γ expression vector and tk-PPRE-luciferase (Luc) vector for 6 h and then treated with the samples for 24 h. HEK293t cells were seeded in a 60-mm dish at a density of 1.5 × 10^6 cells/dish. After transfection with the plasmid mixtures containing PPAR-δ expression vector and Luc vector for 6 h, the cells were transferred to a 96-well plate and treated with the samples. To normalize the transfection efficiency, a β-galactosidase plasmid was cotransfected. The luciferase activity in the cell lysates was measured using a luciferase assay system (Promega Corp., Madison, WI, USA), and the β-galactosidase activity was determined by measuring the absorbance at 410 nm using an ELISA plate reader. The data were expressed as the relative luciferase activity divided by the β-galactosidase activity. All constructs were kindly gifted by Dr. Ronald M. Evans at The Salk Institute (La Jolla, CA, USA).

[2] = target: T2, PPAR-α (Homo sapiens, UniProt Q07869); experiment: cell-based PPAR transactivation (luciferase) assay, PPAR-α; settings: 24 h; compounds 10 µM; relative to maximum activation with GW7647 (10 µM); PPAR-Luc in CV-1 cells; read-out: % max PPAR-α
T2 construct: host or cells: CV-1
T2 sequence (Q07869 1-468): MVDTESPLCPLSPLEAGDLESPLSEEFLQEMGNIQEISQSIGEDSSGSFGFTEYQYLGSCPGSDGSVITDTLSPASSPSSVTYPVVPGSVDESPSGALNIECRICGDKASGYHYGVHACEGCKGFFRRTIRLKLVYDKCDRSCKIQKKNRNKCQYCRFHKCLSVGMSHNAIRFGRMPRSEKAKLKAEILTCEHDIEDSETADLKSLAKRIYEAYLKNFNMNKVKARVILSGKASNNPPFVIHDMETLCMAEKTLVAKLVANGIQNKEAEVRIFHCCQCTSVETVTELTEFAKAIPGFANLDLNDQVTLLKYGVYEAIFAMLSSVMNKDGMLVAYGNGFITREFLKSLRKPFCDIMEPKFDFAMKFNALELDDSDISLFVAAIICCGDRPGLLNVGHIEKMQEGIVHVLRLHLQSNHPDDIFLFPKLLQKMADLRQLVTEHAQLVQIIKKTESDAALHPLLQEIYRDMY
Procedure: as §1, §2

[3] = target: T3, PPAR-γ (Homo sapiens, UniProt P37231); experiment: cell-based PPAR transactivation (luciferase) assay, PPAR-γ; settings: for activation at 10 µM: 24 h, compounds 10 µM, relative to maximum activation with pioglitazone (10 µM), PPAR-Luc in CV-1 cells, read-out: % max PPAR-γ; for agonistic activity to PPARs, in words: transactivation assay, all PPAR subtypes
T3 construct: host or cells: CV-1
T3 sequence (P37231 1-505): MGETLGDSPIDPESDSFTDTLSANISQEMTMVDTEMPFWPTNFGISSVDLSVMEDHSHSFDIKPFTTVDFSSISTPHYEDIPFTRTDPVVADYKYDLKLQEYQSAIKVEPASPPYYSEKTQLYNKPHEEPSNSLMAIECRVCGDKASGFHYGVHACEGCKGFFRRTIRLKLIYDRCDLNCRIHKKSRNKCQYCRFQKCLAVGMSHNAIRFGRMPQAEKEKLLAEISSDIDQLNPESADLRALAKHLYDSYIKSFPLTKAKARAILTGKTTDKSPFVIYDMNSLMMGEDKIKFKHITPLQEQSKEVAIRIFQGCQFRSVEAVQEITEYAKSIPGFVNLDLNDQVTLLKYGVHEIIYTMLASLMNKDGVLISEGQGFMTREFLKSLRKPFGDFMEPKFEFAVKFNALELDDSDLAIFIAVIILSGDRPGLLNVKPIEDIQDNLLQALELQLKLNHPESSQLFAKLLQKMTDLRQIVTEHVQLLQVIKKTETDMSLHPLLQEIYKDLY
Procedure: as §1, §2

[4] = system: db/db mice; design: method as in PMID 21482466, PMID 23265886, PMID 25982078; settings: cited from earlier work

SMILES | activation at 10 µM [1] [%] | activation at 10 µM [2] [%] | activation at 10 µM [3] [%] | agonistic activity to PPARs, in words [3] | accumulation of lipids and size of the adipocytes [4] | blood glucose level [4] | glycated hemoglobin (HbA1c) level [4] | insulin level [4] | weight gain [4]
O=C(O)Cc1cn(Cc2ccccc2)c2cc(OCC(=O)Nc3ccc(Cl)cc3Cl)ccc12 [Compound 8, 2-(1-Benzyl-6-(2-((2,4-dichlorophenyl)amino)-2-oxoethoxy)-1H-indol-3-yl)acetic acid] | 65.4 ± 0.7 | 31.68 ± 0.22 | 71.9 ± 0.91 | – | – | – | – | – | –
CC(C)=CCc1cn(Cc2ccccc2C(=O)O)c2cc(OCC(=O)Nc3ccc(Cl)cc3Cl)ccc12 [Compound 21, 2-((6-(2-((2,4-Dichlorophenyl)amino)-2-oxoethoxy)-3-(3-methylbut-2-en-1-yl)-1H-indol-1-yl)methyl)benzoic acid] | 22.2 ± 0.59 | -2.3 ± 0.19 | 9.55 ± 0.32 | – | – | – | – | – | –
O=C(O)Cc1c[nH]c2cc(OCC(=O)Nc3ccc(Cl)cc3Cl)ccc12 [Compound 6, 2-(6-(2-((2,4-Dichlorophenyl)amino)-2-oxoethoxy)-1H-indol-3-yl)acetic acid] | 8.27 ± 0.33 | 1.12 ± 0.24 | 8.66 ± 0.23 | minimum agonistic activities | – | – | – | – | –
O=C(O)Cc1c[nH]c2ccc(OCC(=O)Nc3ccc(Cl)cc3Cl)cc12 [Compound 5, 2-(5-(2-((2,4-Dichlorophenyl)amino)-2-oxoethoxy)-1H-indol-3-yl)acetic acid] | 11.8 ± 0.35 | -38.13 ± 0.06 | 5.6 ± 0.14 | minimum agonistic activities | – | – | – | – | –
O=C(COc1ccc2c(Cc3ccccc3)cn(Cc3ccccc3C(=O)O)c2c1)Nc1ccc(Cl)cc1Cl [Compound 19, 2-((3-Benzyl-6-(2-((2,4-dichlorophenyl)amino)-2-oxoethoxy)-1H-indol-1-yl)methyl)benzoic acid] | 19.4 ± 0.54 | 7.25 ± 0.12 | 19.03 ± 0.13 | – | – | – | – | – | –
O=C(O)Cc1cn(Cc2ccccc2)c2ccc(OCCCOc3cccc(OCc4ccc(Cl)cc4)c3)cc12 [Compound 2] | – | – | – | – | reduced | lowered | lowered | lowered | without causing weight gain
CC(C)=CCc1cn(Cc2ccccc2C(=O)O)c2ccc(OCC(=O)Nc3ccc(Cl)cc3Cl)cc12 [Compound 20, 2-((5-(2-((2,4-Dichlorophenyl)amino)-2-oxoethoxy)-3-(3-methylbut-2-en-1-yl)-1H-indol-1-yl)methyl)benzoic acid] | 8.92 ± 0.48 | -5.93 ± 0.14 | 5.1 ± 0.2 | – | – | – | – | – | –

Further lines, with some results ahead:

activation at 10 µM [1] [%] | activation at 10 µM [2] [%] | activation at 10 µM [3] [%] | agonistic activity to PPARs, in words [3] | SMILES | accumulation of lipids and size of the adipocytes [4] | blood glucose level [4] | glycated hemoglobin (HbA1c) level [4] | insulin level [4] | weight gain [4]
4.87 ± 0.24 | -14.4 ± 0.16 | -0.84 ± 0.16 | – | O=C(COc1ccc2ccn(Cc3ccc(C(=O)O)cc3)c2c1)Nc1ccc(Cl)cc1Cl [Compound 17, 4-((6-(2-((2,4-Dichlorophenyl)amino)-2-oxoethoxy)-1H-indol-1-yl)methyl)benzoic acid] | – | – | – | – | –
44.4 ± 0.77 | 21.41 ± 0.21 | 31.2 ± 0.38 | – | O=C(O)Cc1cn(Cc2ccccc2)c2ccc(OCC(=O)Nc3ccc(Cl)cc3Cl)cc12 [Compound 7, 2-(1-Benzyl-5-(2-((2,4-dichlorophenyl)amino)-2-oxoethoxy)-1H-indol-3-yl)acetic acid] | – | – | – | – | –
-1.07 ± 0.14 | -19.98 ± 0.08 | 0.29 ± 0.06 | – | O=C(COc1ccc2c(ccn2Cc2ccc(C(=O)O)cc2)c1)Nc1ccc(Cl)cc1Cl [Compound 16, 4-((5-(2-((2,4-Dichlorophenyl)amino)-2-oxoethoxy)-1H-indol-1-yl)methyl)benzoic acid] | – | – | – | – | –
23.9 ± 0.51 | 10.33 ± 0.07 | 42 ± 0.52 | – | O=C(COc1ccc2c(ccn2Cc2cccc(C(=O)O)c2)c1)Nc1ccc(Cl)cc1Cl [Compound 14, 3-((5-(2-((2,4-Dichlorophenyl)amino)-2-oxoethoxy)-1H-indol-1-yl)methyl)benzoic acid] | – | – | – | – | –
